# From ChEMBL document CHEMBL1201862, “PubChem BioAssay data set” (2004)
#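 Each compound was tested at five concentrations against cells in 96-well plates for 48 hours. GI50 = concentration required for 50% inhibition of growth.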 The source made the active and inactive calls. Cut-off read from the data, not from the text of the source: active = GI50 up to about 1.1 µM and inactive = higher.
# Assays:
# Assay in all cases: growth of human tumour cells (NCI), 48 h
# [1] = system: HOP-62
# [2] = system: LXFL 529
# [3] = system: TK-10
# [4] = system: NCI-H460
# [5] = system: SF-268
# [6] = system: KM-20L2
# [7] = system: SNB-75
# [8] = system: SK-MEL-5
# [9] = system: HT-29
# [10] = system: SK-OV-3
# [11] = system: HL-60
# [12] = system: 786-0
# [13] = system: SN12C
# [14] = system: CAKI-1
# [15] = system: COLO 205
# [16] = system: A498
SMILES,GI50 [1],GI50 [2],GI50 [3],GI50 [4],GI50 [5],GI50 [6],GI50 [7],GI50 [8],GI50 [9],GI50 [10],GI50 [11],GI50 [12],GI50 [13],GI50 [14],GI50 [15],GI50 [16]
CCCCCCCCCCCC[N+]12CC[N+](CCN)(CC1)CC2,68.5 µM (inactive),81.7 µM (inactive),17.1 µM (inactive),29.2 µM (inactive),37.2 µM (inactive),62.4 µM (inactive),28.2 µM (inactive),> 100 µM (inactive),67.8 µM (inactive),> 100 µM (inactive),27.7 µM (inactive),> 100 µM (inactive),76.7 µM (inactive),19.2 µM (inactive),39.3 µM (inactive),
CN(C)CCNC(=O)c1ccc(C(=O)NCCN(C)C)c2nc3ccccc3cc12,0.979 µM (active),0.729 µM (active),0.94 µM (active),0.384 µM (active),0.962 µM (active),0.568 µM (active),1.71 µM (inactive),1.49 µM (inactive),0.452 µM (active),0.916 µM (active),0.826 µM (active),0.692 µM (active),0.83 µM (active),1.48 µM (inactive),0.469 µM (active),1.15 µM (inactive)
CCCNCC(=O)O[C@]1(CC)C(=O)OCc2c1cc1n(c2=O)Cc2cc3ccccc3nc2-1,< 0.01 µM (active),1.42 µM (inactive),4.43 µM (inactive),< 0.01 µM (active),< 0.01 µM (active),0.416 µM (active),0.0429 µM (active),0.119 µM (active),0.274 µM (active),0.0679 µM (active),< 0.01 µM (active),< 0.01 µM (active),< 0.01 µM (active),,0.908 µM (active),0.163 µM (active)
NCCCCCS(=O)(=O)O,> 100 µM (inactive),> 100 µM (inactive),> 100 µM (inactive),> 100 µM (inactive),> 100 µM (inactive),> 100 µM (inactive),> 100 µM (inactive),> 100 µM (inactive),> 100 µM (inactive),> 100 µM (inactive),> 100 µM (inactive),> 100 µM (inactive),> 100 µM (inactive),,> 100 µM (inactive),> 100 µM (inactive)
COc1cc(Cl)cc(O)c(=O)c1OC,41.1 µM (inactive),53.3 µM (inactive),44.1 µM (inactive),24.3 µM (inactive),25.3 µM (inactive),37.9 µM (inactive),59.2 µM (inactive),,64.3 µM (inactive),> 62.5 µM (inactive),2.15 µM (inactive),61.1 µM (inactive),46 µM (inactive),,28.7 µM (inactive),57.1 µM (inactive)
C/C(CN1C(=O)c2ccccc2C1=O)=N\NS(=O)(=O)c1ccc2ccccc2c1,> 100 µM (inactive),> 100 µM (inactive),> 100 µM (inactive),> 100 µM (inactive),88.5 µM (inactive),> 100 µM (inactive),32.1 µM (inactive),> 100 µM (inactive),> 100 µM (inactive),> 100 µM (inactive),> 100 µM (inactive),> 100 µM (inactive),> 100 µM (inactive),> 100 µM (inactive),> 100 µM (inactive),> 100 µM (inactive)
O=C(O)CSc1nnc(/C=C/c2ccccc2)[nH]1,> 100 µM (inactive),> 100 µM (inactive),> 100 µM (inactive),> 100 µM (inactive),> 100 µM (inactive),> 100 µM (inactive),> 100 µM (inactive),> 100 µM (inactive),> 100 µM (inactive),> 100 µM (inactive),> 100 µM (inactive),> 100 µM (inactive),> 100 µM (inactive),> 100 µM (inactive),> 100 µM (inactive),> 100 µM (inactive)
O=C1C2c3[nH]c4ccccc4c3C3CCCCCC3C2C(=O)N1c1ccccc1 (centres undefined),16.9 µM (inactive),> 86.9 µM (inactive),35.3 µM (inactive),11.3 µM (inactive),39.2 µM (inactive),> 100 µM (inactive),3.44 µM (inactive),> 100 µM (inactive),> 57.7 µM (inactive),15.9 µM (inactive),> 45.6 µM (inactive),44.9 µM (inactive),9.71 µM (inactive),17.4 µM (inactive),> 25.8 µM (inactive),30.8 µM (inactive)
COC(=O)C1CC(c2ccc(Cl)cc2)=NO1 (centres undefined),> 100 µM (inactive),> 100 µM (inactive),> 100 µM (inactive),> 100 µM (inactive),> 100 µM (inactive),> 100 µM (inactive),> 100 µM (inactive),> 100 µM (inactive),> 100 µM (inactive),> 100 µM (inactive),> 100 µM (inactive),> 100 µM (inactive),> 100 µM (inactive),6.17 µM (inactive),> 100 µM (inactive),> 100 µM (inactive)
